Reference: patent US7829296B2, “Kinesin polypeptides, polynucleotides encoding same and compositions and methods of using same” (Ramot at Tel-Aviv University Ltd., priority 2005, dated 2010)

How the values were obtained:
[1] = system: ERK1/2 in MBA-15 cells; assay: pERK1/2 in anti-MS-KIF18A immunoprecipitates (MS-KIF18A-ERα complex), Western blot; format: cell-based; settings: for ERK activation in anti-MS-KIF18A immunoprecipitate after pretreatment: then 17β-estrogen
Description: (§1) For immunoprecipitation (IP), anti-MS-KIF18A and protein-A sepharose beads (Sigma, USA) were added to lysates and samples were incubated overnight at 4° C. Immunocomplexes were precipitated at 16,000 g for 1 minute and washed 4 times with lyses buffer. The washed beads were re-suspended in Lamelli sample buffer and boiled for 3 minutes. The proteins were separated on 8% SDS-PAGE gel for 2 hours and transferred to nitrocellulose for 1.5 hours.
(§2) For Western blot, the membranes were blocked with 5% BSA in TBST (50 mM Tris, pH-7.5, 150 mM NaCl, 0.1% Tween-20, Sigma, USA) for 1 hour at RT or overnight and than incubated with anti-MS-KIF18A. The membranes were washed with TBST and incubated with goat anti-rabbit or goat anti-mouse conjugated to biotin (Dako, Denmark) for 40 minutes at RT and Extravidin-Peroxidase (Sigma, USA) for detection with chemiluminescent substrate (Pierce, USA).
(§3) Estrogen signaling, ERK1/2 pathway: MBA-15 cells were maintained in medium supplemented with 3% charcoal striped FCS for 48 hours prior to the start of the experiment. On the day of the experiment, the cells were pretreated with 25 μM MAPK inhibitor, PD98059 (Calbiochem, USA) and an estrogen antagonist ICI 182,780 10^−6M (Tocris, USA) for 45 minutes. 10^−8M 17β-estrogen (Sigma, USA) was added for five minutes. Cell lysates were used for immunoprecipitation and analyzed by Western blot.
(§4) Immunoprecipitation, Western blot, SDS-PADE gel: All experiments were performed as described in Example 1. Primary antibodies included anti-MS-KIF18A, anti-ER antibodies (Upstate Biotechnologies, USA) or SRA-1010 (Stressgen, Canada), anti-ERK1/2, pERK1/2 (Sigma, USA) or anti-His-tag (Santa Cruz Biotechnologies, USA). For detection a secondary antibody conjugated to biotin-extravidine-peroxidase and chemiluminescent substrate was used (Pierce, USA).

[2] = system: ERK1/2 in MBA-15 cells; assay: Estrogen signaling, ERK1/2 pathway: Western blot for pERK1/2 on whole cell lysates; format: cell-based; settings: FIG. 16A; for 17βE2-induced increase of pERK1/2 after pretreatment: then 10^−8M 17β-estrogen five minutes
Description: Western blot analysis and Immunoprecipitation: Cells were harvested from cultures, washed twice with ice-cold PBS and collected in presence of protease inhibitors (Phenylmethylsulfonyl fluoride PMSF, 1 mM; 1-Chloro-3-tosylamido-4-phenyl-2-butanone, TPCK, 10 μg/ml; Aprotinin, 10 μg/ml (Sigma, USA) and phosphatase inhibitor cocktails I and II (Sigma, USA). Samples were spun down at 1500 rpm for 4 minutes and pellets were reconstituted in lyses buffer (50 mM Tris pH 7.5, 150 mM NaCl, 1% NP-40, and protease and phosphatase inhibitors, as above). Following a 20 minute incubation at 4° C., samples were centrifuged at 16,000 g for 5 minutes.
as §2, §3, §4

[3] = molecular target: T1, ERα 66 kDa (Homo sapiens, UniProt P03372); assay: Co-immunoprecipitation of co-transfected His-MS-KIF18A and ERα 66 kDa in COS-7 cells; format: binding; settings: COS-7 cells co-transfected with His-MS-KIF18A and ERα 66 kDa, FIGS. 14A-B
T1 construct: expressed in transfected cells; host or cells: COS-7
T1 sequence (P03372 1-595): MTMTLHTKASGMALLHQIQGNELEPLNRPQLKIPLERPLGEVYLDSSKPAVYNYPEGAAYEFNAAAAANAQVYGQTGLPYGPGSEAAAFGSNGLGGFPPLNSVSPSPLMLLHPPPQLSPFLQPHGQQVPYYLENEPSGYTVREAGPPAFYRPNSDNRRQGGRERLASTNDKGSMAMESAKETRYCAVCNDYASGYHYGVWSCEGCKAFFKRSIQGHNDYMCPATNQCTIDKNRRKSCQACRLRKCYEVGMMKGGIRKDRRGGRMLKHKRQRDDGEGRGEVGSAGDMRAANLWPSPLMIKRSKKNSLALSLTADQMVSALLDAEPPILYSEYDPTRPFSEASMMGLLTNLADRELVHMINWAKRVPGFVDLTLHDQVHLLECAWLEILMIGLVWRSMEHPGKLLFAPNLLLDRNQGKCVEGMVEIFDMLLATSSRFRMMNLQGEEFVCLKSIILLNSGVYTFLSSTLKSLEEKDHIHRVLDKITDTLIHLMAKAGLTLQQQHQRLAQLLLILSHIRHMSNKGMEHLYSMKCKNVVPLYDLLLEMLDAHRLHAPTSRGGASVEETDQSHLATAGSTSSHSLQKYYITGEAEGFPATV
T1 sequence (Q8NI77 1-898 I735V partner): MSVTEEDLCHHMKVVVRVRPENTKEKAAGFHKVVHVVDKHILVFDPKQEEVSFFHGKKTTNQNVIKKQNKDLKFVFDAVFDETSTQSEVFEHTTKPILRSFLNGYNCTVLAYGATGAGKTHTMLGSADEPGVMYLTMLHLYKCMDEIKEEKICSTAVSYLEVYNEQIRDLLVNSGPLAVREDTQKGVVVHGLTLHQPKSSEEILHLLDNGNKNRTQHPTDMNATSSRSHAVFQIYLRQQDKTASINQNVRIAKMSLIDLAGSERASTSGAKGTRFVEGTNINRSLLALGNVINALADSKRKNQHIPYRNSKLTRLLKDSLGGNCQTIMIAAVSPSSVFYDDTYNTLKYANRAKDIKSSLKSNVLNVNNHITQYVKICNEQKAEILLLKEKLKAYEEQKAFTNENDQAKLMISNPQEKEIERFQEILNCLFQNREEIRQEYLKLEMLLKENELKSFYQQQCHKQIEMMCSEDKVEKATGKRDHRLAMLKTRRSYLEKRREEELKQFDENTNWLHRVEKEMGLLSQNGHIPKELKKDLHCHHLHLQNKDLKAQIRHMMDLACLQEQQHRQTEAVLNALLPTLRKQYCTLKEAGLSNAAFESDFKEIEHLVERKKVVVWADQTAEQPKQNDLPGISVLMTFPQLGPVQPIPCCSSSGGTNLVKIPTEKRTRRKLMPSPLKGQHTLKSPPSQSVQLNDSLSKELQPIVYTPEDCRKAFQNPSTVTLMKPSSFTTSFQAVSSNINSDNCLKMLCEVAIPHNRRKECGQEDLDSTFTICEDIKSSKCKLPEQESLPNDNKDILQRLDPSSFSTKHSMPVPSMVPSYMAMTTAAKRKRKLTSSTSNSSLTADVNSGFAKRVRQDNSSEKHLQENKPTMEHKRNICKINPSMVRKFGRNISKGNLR
Description: as §1, §2
Immunoprecipitation, Western blot, SDS-PADE gel: All experiments were performed as described in Example 1. Primary antibodies included anti-MS-KIF18A, anti-ER antibodies (Upstate Biotechnologies, USA) or SRA-1010 (Stressgen, Canada), anti-ERK1/2, pERK1/2 (Sigma, USA) or anti-His-tag (Santa Cruz Biotechnologies, USA). For detection a secondary antibody conjugated to biotin-extravidine-peroxidase and chemiluminescent substrate was used (Pierce, USA). […]

[4] = system: ERα; assay: Co-immunoprecipitation of endogenous MS-KIF18A and ERα in MBA-15 cells; format: binding; settings: MBA-15 cell lysates, antibodies directed against MS-KIF18A, FIG. 15
Description: as §1, §2, §4

Molecule: COc1cccc(-c2cc(=O)c3ccccc3o2)c1N [PD98059]
- ERK activation in anti-MS-KIF18A immunoprecipitate after pretreatment ([1]; pretreated with 25 μM PD98059 45 minutes, FIG. 16D lane 2, FIG. 16E): reduced ERK activation
- 17βE2-induced increase of pERK1/2 after pretreatment ([2]; pretreated with 25 μM PD98059 for 45 minutes): inhibited

Molecule: 17β-estrogen [17βE2]
- activated ERK in anti-MS-KIF18A immunoprecipitate following estrogen treatment ([1]; 10^−8M 17β-estrogen five minutes, FIG. 16D lane 4): increase in activated ERK
- pERK1/2 following 17βE2 stimulation ([2]; 10^−8M 17β-estrogen for five minutes): increase

Molecule: C[C@]12CC[C@@H]3c4ccc(O)cc4C[C@@H](CCCCCCCCC[S+]([O-])CCCC(F)(F)C(F)(F)F)[C@H]3[C@@H]1CC[C@@H]2O (some centres unmarked) [ICI 182,780]
- ERK activation in anti-MS-KIF18A immunoprecipitate after pretreatment ([1]; pretreated with ICI 182,780 10^−6M 45 minutes, FIG. 16D lane 3, FIG. 16E): reduced ERK activation
- 17βE2-induced increase of pERK1/2 after pretreatment ([2]; pretreated with ICI 182,780 10^−6M for 45 minutes): inhibited

B1: His-MS-KIF18A: His-tagged MS-KIF18A expressed from pcDNA3.1-His-C-MS-KIF18A in COS-7 cells (protein)
chain: T1 sequence (Q8NI77 1-898 I735V partner)
modifications: left off: small tags and cut ends
notes: His-tagged MS-KIF18A expressed from pcDNA3.1-His-C-MS-KIF18A in COS-7 cells
- interaction with ERα 66 kDa (pull-down by anti-MS-KIF18A and anti-His antibodies) [3]: interaction

B2: MS-KIF18A: novel kinesin KIF18A polypeptide of 898 amino acids expressed in mesenchymal stem cells, SEQ ID NO: 2 (protein, listed as Homo sapiens)
chain: T1 sequence (Q8NI77 1-898 I735V partner)
- association with endogenous ERα (co-immunoprecipitation) [4]: confirmed the association
